Measurements: patent US20130217722A1, “NOVEL COMPOUND USEFUL FOR THE TREATMENT OF DEGENERATIVE AND INFLAMMATORY DISEASES” (priority 2012, published 2013)
Values joined by “and” are separate entries in the source; they are usually repeats but may differ in a detail not shown here. Equal values may be shown once.

How the values were obtained:
[1] = target: T1, Recombinant human JAK3 catalytic domain (Homo sapiens, UniProt P52333); assay: JAK3 inhibition assay (polyGT substrate); type: biochemical
T1 construct: Recombinant human JAK3 catalytic domain (amino acids 781-1124; catalog number PV3855) was purchased from Invitrogen; purchased Invitrogen PV3855
Description: Recombinant human JAK3 catalytic domain (amino acids 781-1124; catalog number PV3855) was purchased from Invitrogen. 0.5 ng JAK3 protein was incubated with 2.5 μg polyGT substrate (Sigma catalog number P0275) in kinase reaction buffer (25 mM Tris pH 7.5, 0.5 mM EGTA, 10 mM MgCl2, 2.5 mM DTT, 0.5 mM Na3VO4, 5 mM b-glycerolphosphate, 0.01% Triton X-100, 1 μM non-radioactive ATP, 0.25 μCi ^33P-gamma-ATP (GE Healthcare, catalog number AH9968) final concentrations) with or without 5 μL containing test compound or vehicle (DMSO, 1% final concentration), in a total volume of 25 μL, in a polypropylene 96-well plate (Greiner, V-bottom). After 45 min at 30° C., reactions were stopped by adding 25 μL/well of 150 mM phosphoric acid. […] 40 μL/well of Microscint-20 was added, the top of the plates was sealed and readout was performed using the Topcount (Perkin Elmer). Kinase activity was calculated by subtracting counts per min (cpm) obtained in the presence of a positive control inhibitor (10 μM staurosporine) from cpm obtained in the presence of vehicle. The ability of a test compound to inhibit this activity was determined as:
Percentage inhibition=((cpm determined for sample with test compound present−cpm determined for sample with positive control inhibitor) divided by (cpm determined in the presence of vehicle−cpm determined for sample with positive control inhibitor))*100. […]

rat CIA model = assay: Rat collagen induced arthritis (CIA) model; type: in vivo; settings: p.o., therapeutic dosing day 16 to day 30
Description: Completed Freund's adjuvant (CFA) and incomplete Freund's adjuvant (IFA) were purchased from Difco. Bovine collagen type II (CII), lipopolysaccharide (LPS), and Enbrel was obtained from Chondrex (Isle d'Abeau, France); Sigma (P4252, L'Isle d'Abeau, France), Whyett (25 mg injectable syringe, France) Acros Organics (Palo Alto, Calif.), respectively. All other reagents used were of reagent grade and all solvents were of analytical grade.
Dark Agouti rats (male, 7-8 weeks old) were obtained from Harlan Laboratories (Maison-Alfort, France). Rats were kept on a 12 h light/dark cycle (0700-1900). Temperature was maintained at 22° C., and food and water were provided ad libitum.
One day before the experiment, CII solution (2 mg/mL) was prepared with 0.05 M acetic acid and stored at 4° C. Just before the immunization, equal volumes of adjuvant (IFA) and CII were mixed by a homogenizer in a pre-cooled glass bottle in an ice water bath. Extra adjuvant and prolonged homogenization may be required if an emulsion is not formed. […]
Arthritis is scored according to the method of Khachigian 2006, Lin et al 2007 and Nishida et al. 2004). […]
The area under the curve (AUC) from day 1 to day 14 was calculated for each individual rat. The AUC of each animal was divided by the average AUC obtained for the vehicle in the study from which the data on that animal was obtained and multiplied by 100 (i.e. the AUC was expressed as a percentage of the average vehicle AUC per study).
The clinical score difference for each animal was divided by the average clinical score difference obtained for the vehicle in the study from which the data on that animal was obtained and multiplied by 100 (i.e. the difference was expressed as a percentage of the average clinical score difference for the vehicle per study).
Clinically, body weight loss is associated with arthritis (Shelton et al., 2005; Rall, 2004; Walsmith et al., 2004). […] The change in body weight (%) after onset of arthritis was calculated as follows: […]

T1 sequence (P52333 781-1124): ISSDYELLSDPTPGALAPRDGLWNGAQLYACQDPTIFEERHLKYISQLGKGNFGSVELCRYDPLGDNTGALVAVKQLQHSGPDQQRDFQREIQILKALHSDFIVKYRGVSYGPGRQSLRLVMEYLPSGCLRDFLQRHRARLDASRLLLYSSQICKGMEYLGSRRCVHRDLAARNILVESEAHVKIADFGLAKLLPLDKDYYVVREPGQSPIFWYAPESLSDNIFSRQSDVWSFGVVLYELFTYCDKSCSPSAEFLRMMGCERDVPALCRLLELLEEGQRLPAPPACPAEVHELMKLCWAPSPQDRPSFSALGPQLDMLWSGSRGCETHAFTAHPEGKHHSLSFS

JAK1 selectivity vs JAK3 [1]: 30 fold
IC50 ([1]; polyGT substrate, 1 μM ATP, individual determinations, read-out: IC50 against JAK3): 0.16 µM and 0.0652 µM and 0.142 µM and 0.0669 µM and 0.0309 µM and 0.0328 µM and 0.038 µM and 0.0666 µM
Compound: CCc1cc(C2=CCN(C(=O)CC#N)CC2)ccc1N(C)c1cc2c(cn1)ncn2C [Compound 1]
efficacy in rat CIA model (rat CIA model; 1 mg/kg): statistically significant efficacy
efficacy in rat CIA model (rat CIA model; 3 mg/kg): statistically significant efficacy
efficacy in rat CIA model (rat CIA model; 10 mg/kg): statistically significant efficacy
